Laboratory results: publication PMC8009520, “Exploration of TRPM8 Binding Sites by β-Carboline-Based Antagonists and Their In Vitro Characterization and In Vivo Analgesic Activities” (Journal of Medicinal Chemistry, 2020)
Where two headings read alike, the source gives them in different places.

How the values were obtained:
[1] = molecular target: T1, rat isoform of TRPM8 channels (Rattus norvegicus, UniProt Q8R455); assay: Ca2+ fluorimetric assay, menthol-activated channel; assay type: cell-based
T1 construct: expressed in transfected cells
Experimental: TRPM8 blocker activity of all synthesized compounds was tested by Ca^2+ fluorimetric assays using HEK-293 cells stably expressing the rat isoform of TRPM8 channels, using menthol and AMTB as prototypical agonist and antagonist, respectively.
For measurement of the potency of the compounds, fluorimetric experiments were performed using HEK-293 cells (CRL-1573TM, American Type Culture Collection, LGC Promochem, Molsheim, France) that stably express rat TRPM8. The cells were seeded in 96-well plates (Corning Incorporated, Corning, NY) at a cell density of 40 000 cells 2 days before treatment. On the day of treatment, the medium was replaced with 100 μL of the dye loading solution Fluo-4 NW supplemented with probenecid 2.5 mM.
The tested molecules dissolved in DMSO were added at the desired concentrations, and the plates were incubated in darkness at 37 °C in a humidified atmosphere of 5% CO2 for 60 min. The fluorescence was measured using instrument settings appropriate for excitation at 485 nm and emission at 535 nm (POLARstar Omega BMG LABtech). A baseline recording of four cycles was recorded prior to stimulation with the agonist (100 μM menthol for TRPM8). The TRPM8 antagonist, 10 μM AMTB, was added to the medium containing the corresponding agonist to induce channel blockade. The changes in fluorescence intensity were recorded during 15 cycles more. The higher concentration of DMSO used in the experiment was added to the control wells. The cells’ fluorescence was measured before and after the addition of various concentrations of test compounds. The fluorescence values obtained are normalized to that prompted by the corresponding agonist (for channel activating compounds) or upon agonist and antagonist coexposure (for channel blocker compounds).

hTRPV1 = molecular target: T2, hTRPV1 (Homo sapiens, UniProt Q8NER1); assay: Selectivity fluorimetric assay, CHO-K1 cells; assay type: cell-based; conditions: capsaicine as reference agonist
T2 construct: expressed in transfected cells; host or cells: CHO-K1, stably transfected

hTRPA1 = molecular target: T3, hTRPA1 (Homo sapiens, UniProt O75762); assay: Selectivity fluorimetric assay, HEK-293 cells; assay type: cell-based; conditions: AITC as reference agonist
T3 construct: expressed in transfected cells; host or cells: HEK-293, stably transfected

hNav1.7 = molecular target: T4, hNav1.7 (Homo sapiens, UniProt Q15858); assay: Selectivity fluorimetric assay, HEK-293 cells; assay type: cell-based; conditions: for IC50: read-out: IC50, antagonistic activity over Nav1.7
T4 construct: expressed in transfected cells; host or cells: HEK-293, stably transfected

[2] = Time-course cis to trans epimerization stability (HPLC); assay type: physicochemical; conditions: during 60 min, regardless of the solvent used (PBS, methanol)
Experimental: In this case, a different chemical approach is required because of the minor reactivity of anilines. Intermediates THBC 32a and 32b were coupled with 3CF3 or 2F or 4-F-phenyl isocyanate in basic medium of TEA. […] Absolute configuration was determined as described above. The formation of the cis intermediates, which was not observed with the N-benzyl or N-alkyl analogs, can be explained by the increased stability of the kinetic control species due to the higher rigidity of this structure. […] In addition, the corresponding C-11a epimers 36a′–38a′ could be obtained directly by reaction of 32b with the corresponding isocyanates and TEA at 60 °C for 30 min in 39–45% yields.
Figure S1: Time-course trans (36a’-38a’) / cis (36b-38b) HPLC peak area ratio in physiological
buffer (PBS, panel A) and methanol (Panel B).

[3] = HEK-293 cells stably expressing rat TRPM8, menthol as agonist, mean ± SD of at least three measurements, read-out: IC50
[4] = Table 2, Ca2+ fluorimetric assay, read-out: IC50 Ca2+
[5] = supplementary xlsx, read-out: rTRPM8 IC50 (calcium microfluorimetric assays)

T1 sequence (Q8R455 whole entry, canonical isoform): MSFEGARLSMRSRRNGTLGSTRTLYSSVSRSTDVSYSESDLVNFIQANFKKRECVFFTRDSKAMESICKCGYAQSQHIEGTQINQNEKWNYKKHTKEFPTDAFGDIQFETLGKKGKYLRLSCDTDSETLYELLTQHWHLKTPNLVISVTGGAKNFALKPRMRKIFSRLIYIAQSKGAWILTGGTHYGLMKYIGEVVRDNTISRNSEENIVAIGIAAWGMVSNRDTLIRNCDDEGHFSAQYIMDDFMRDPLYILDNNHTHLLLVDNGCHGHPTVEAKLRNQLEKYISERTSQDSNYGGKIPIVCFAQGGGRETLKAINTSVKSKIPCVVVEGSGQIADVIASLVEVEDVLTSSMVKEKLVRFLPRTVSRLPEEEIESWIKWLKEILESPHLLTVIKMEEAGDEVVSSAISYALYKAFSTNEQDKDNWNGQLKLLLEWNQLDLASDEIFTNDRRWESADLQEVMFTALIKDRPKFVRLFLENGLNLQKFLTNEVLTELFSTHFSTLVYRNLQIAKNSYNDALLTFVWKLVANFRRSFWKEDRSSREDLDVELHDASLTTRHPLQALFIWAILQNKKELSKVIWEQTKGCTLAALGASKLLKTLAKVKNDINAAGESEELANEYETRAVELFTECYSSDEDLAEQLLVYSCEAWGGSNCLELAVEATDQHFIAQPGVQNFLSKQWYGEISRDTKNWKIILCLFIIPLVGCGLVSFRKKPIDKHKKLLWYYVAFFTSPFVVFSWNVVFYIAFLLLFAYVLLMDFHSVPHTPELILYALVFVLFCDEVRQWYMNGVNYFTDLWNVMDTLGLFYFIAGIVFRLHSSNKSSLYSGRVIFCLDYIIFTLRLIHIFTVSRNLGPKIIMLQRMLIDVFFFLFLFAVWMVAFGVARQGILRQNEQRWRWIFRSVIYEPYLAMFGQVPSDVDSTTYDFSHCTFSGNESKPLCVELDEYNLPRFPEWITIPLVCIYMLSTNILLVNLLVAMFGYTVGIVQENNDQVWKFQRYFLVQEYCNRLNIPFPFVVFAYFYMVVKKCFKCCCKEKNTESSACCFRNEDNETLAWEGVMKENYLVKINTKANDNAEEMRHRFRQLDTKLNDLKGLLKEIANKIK
T2 sequence (Q8NER1 whole entry): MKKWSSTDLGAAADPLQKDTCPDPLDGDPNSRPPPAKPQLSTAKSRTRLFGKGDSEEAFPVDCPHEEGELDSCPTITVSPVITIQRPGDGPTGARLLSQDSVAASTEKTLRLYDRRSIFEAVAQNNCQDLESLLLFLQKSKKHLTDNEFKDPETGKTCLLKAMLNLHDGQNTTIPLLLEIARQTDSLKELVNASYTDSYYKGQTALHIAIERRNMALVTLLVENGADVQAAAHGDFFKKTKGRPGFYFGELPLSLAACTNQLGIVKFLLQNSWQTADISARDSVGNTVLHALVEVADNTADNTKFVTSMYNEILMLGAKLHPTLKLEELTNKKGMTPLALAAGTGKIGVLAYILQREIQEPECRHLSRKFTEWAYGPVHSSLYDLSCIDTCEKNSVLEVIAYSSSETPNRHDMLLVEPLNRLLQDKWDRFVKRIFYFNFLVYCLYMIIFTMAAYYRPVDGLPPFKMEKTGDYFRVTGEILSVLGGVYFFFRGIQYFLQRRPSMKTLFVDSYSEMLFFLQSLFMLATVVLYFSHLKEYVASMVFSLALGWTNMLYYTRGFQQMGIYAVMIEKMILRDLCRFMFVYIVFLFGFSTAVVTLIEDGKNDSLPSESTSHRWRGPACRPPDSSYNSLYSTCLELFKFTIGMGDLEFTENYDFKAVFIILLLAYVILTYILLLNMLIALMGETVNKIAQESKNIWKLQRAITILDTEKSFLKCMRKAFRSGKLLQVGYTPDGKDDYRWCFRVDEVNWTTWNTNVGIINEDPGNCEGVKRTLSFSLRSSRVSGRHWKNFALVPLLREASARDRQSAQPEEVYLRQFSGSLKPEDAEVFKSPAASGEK
T4 sequence (Q15858 whole entry): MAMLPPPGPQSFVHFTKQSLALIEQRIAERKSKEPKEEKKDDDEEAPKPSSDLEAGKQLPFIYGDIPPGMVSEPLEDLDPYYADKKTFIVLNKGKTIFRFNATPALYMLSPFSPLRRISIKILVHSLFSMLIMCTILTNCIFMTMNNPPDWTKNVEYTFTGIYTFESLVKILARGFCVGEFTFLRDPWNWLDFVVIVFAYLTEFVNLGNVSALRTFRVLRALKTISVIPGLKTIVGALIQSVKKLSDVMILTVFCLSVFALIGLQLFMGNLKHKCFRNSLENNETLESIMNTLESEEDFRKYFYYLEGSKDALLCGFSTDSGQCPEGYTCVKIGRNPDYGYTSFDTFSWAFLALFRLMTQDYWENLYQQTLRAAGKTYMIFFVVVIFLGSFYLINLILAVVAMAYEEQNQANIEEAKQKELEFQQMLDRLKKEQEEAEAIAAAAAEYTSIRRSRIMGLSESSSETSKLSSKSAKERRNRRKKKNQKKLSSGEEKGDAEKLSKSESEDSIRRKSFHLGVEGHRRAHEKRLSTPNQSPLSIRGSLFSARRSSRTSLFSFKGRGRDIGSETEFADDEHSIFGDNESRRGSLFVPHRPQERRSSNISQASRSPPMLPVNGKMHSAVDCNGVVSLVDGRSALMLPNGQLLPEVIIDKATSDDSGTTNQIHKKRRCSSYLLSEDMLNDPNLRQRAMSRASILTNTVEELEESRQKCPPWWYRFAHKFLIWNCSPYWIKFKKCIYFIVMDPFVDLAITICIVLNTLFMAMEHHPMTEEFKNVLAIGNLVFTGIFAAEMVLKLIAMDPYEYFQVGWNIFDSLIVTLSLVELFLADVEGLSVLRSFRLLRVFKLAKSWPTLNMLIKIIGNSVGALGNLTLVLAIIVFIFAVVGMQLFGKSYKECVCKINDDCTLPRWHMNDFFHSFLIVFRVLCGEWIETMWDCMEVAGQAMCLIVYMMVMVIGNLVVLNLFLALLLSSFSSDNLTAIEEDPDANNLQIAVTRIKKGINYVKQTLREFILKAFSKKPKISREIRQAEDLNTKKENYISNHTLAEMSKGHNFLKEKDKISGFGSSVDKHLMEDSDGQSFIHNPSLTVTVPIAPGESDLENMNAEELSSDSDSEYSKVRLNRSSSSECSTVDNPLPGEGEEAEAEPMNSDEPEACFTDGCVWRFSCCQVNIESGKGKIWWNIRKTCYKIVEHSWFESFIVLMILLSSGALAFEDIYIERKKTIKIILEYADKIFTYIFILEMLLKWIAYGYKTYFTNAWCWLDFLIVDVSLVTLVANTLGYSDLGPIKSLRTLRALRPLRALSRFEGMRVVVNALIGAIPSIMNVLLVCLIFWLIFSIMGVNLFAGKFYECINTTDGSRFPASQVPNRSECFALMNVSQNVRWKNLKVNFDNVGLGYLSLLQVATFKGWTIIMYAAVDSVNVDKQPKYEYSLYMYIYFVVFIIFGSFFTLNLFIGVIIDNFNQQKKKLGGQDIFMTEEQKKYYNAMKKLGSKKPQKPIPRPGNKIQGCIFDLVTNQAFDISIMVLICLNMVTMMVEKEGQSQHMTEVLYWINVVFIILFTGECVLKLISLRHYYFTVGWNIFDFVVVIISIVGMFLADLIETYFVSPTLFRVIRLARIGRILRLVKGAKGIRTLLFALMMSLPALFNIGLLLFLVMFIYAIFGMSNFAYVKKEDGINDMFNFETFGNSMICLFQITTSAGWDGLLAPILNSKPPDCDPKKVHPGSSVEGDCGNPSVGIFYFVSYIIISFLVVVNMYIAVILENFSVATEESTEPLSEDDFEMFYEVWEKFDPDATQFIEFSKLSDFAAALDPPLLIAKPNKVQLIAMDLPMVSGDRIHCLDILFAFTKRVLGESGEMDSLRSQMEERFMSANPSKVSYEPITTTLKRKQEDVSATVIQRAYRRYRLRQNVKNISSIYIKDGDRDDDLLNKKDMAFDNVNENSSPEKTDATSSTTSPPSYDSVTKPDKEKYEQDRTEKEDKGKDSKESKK
T3 sequence (O75762 whole entry): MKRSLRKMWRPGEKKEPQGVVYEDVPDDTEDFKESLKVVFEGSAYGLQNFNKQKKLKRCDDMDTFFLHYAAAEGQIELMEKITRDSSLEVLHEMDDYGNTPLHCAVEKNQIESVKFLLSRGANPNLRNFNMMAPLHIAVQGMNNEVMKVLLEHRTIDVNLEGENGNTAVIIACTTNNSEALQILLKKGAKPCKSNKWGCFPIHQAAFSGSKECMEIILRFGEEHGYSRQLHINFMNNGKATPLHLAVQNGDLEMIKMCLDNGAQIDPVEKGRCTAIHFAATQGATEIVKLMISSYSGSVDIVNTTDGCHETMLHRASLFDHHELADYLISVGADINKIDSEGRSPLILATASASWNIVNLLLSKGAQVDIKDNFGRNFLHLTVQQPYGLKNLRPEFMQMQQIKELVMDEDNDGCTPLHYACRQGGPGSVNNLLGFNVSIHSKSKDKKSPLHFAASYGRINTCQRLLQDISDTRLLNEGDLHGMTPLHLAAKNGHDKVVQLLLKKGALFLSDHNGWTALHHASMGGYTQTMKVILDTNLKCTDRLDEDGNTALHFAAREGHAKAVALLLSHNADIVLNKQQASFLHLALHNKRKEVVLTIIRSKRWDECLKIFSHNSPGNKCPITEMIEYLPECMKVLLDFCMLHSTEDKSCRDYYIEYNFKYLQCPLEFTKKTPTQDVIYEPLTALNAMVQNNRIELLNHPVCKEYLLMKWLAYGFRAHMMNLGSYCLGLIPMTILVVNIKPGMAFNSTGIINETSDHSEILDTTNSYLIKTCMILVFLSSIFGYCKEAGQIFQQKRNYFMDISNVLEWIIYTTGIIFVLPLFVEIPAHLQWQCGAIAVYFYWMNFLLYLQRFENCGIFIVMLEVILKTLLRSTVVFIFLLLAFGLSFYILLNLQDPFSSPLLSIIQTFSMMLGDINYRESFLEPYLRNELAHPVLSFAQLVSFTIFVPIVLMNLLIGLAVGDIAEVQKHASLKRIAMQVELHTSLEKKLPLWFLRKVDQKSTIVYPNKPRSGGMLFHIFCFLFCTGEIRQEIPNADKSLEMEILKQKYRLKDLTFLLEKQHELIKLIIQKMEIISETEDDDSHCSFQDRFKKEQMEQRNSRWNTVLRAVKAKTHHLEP

Q: What does the source list for `COC(=O)[C@@H]1Cc2c([nH]c3ccccc23)[C@@H](c2ccccc2)N1Cc1ccccc1` [6a, (1R,3S)-Methyl 2-Benzyl-1-phenyl-2,3,4,9-tetrahydro-1H-pyrido[3,4-b]indole-3-carboxylate]?
A: IC50 [1, 3]: 1.3 ± 0.7 µM; activity as agonist or antagonist on TRPV1 (hTRPV1): no activity as agonists or antagonists; activity as agonist or antagonist on TRPA1 (hTRPA1): no activity as agonists or antagonists; IC50 (hNav1.7): > 10 µM

Q: With `O=C1[C@@H]2Cc3c([nH]c4ccccc34)[C@H](c3ccc(F)cc3)N2C(=O)N1c1ccccc1F` [37b, (5S,11aS)-2-(2-Fluorophenyl)-5-(4-fluorophenyl)-5,6,11,11a-tetrahydro-1H-imidazo[1′,5′:1,6]pyrido[3,4-b]indole-1,3(2H)-dione] as the compound, how does the “conversion of cis isomer to trans isomer” value [2] read?
A: almost fully converted to the trans isomers

Q: With `O=C1[C@H]2Cc3c([nH]c4ccccc34)[C@H](c3ccc(F)cc3)N2C(=O)N1c1ccc(F)cc1` [38a′, (5S,11aR)-2,5-Bis(4-fluorophenyl)-5,6,11,11a-tetrahydro-1H-imidazo[1′,5′:1,6]pyrido[3,4-b]indole-1,3(2H)-dione] as the compound, how does the IC50 [1, 3] read?
A: 7.2 ± 0.9 µM

Q: With `O=C1[C@@H]2Cc3c([nH]c4ccccc34)[C@H](c3ccc(F)cc3)N2C(=O)N1c1ccc(F)cc1` [38b, (5S,11aS)-2,5-Bis(4-fluorophenyl)-5,6,11,11a-tetrahydro-1H-imidazo[1′,5′:1,6]pyrido[3,4-b]indole-1,3(2H)-dione] as the compound, how does the “conversion of cis isomer to trans isomer” value [2] read?
A: almost fully converted to the trans isomers

Q: For `Cc1cccc(COc2ccccc2C(=O)N(CCCN)Cc2cccs2)c1` [AMTB, reference compound], which IC50 [1, 3] is on record?
A: 7.3 ± 1.5 µM

Q: For `O=C(NCc1ccc(F)cc1)[C@@H]1Cc2c([nH]c3ccccc23)CN1` [compound 9, (S)-N-(4-Fluorobenzyl)-2,3,4,9-tetrahydro-1H-pyrido[3,4-b]indole-3-carboxamide], which IC50 [1, 3] is on record?
A: 0.9 ± 0.4 µM

Q: What about the IC50 [1, 4] of the same compound?
A: 0.9 ± 0.4 µM

Q: What about the IC50 [1, 5] of the same compound?
A: 0.6 ± 1.3 µM

Q: And the “activity as agonist or antagonist on TRPV1” value (hTRPV1)?
A: no activity as agonists or antagonists

Q: What about the “activity as agonist or antagonist on TRPA1” value (hTRPA1) of the same compound?
A: no activity as agonists or antagonists

Q: What about the IC50 (hNav1.7) of the same compound?
A: > 10 µM

Q: For `COC(=O)[C@@H]1Cc2c([nH]c3ccccc23)CN1C(=O)CCN` [compound 17, (S)-Methyl 2-(3-Aminopropanoyl)-2,3,4,9-tetrahydro-1H-pyrido[3,4-b]indole-3-carboxylate], which IC50 [1, 3] is on record?
A: > 100 µM

Q: Which IC50 [1, 3] does the source give for `O=C1NCC(=O)N2Cc3[nH]c4ccccc4c3C[C@@H]12` [compound 21, (S)-2,3,6,7,12,12a-Hexahydropyrazino[1′,2′:1,6]pyrido[3,4-b]indole-1,4-dione] here?
A: 11.4 ± 1.6 µM

Q: Which IC50 [1, 3] does the source give for `O=C1N[C@@H](Cc2ccccc2)C(=O)N2Cc3[nH]c4ccccc4c3C[C@@H]12` [compound 22, (3S,12aS)-3-Benzyl-2,3,12,12a-tetrahydropyrazino[1′,2′:1,6]pyrido[3,4-b]indole-1,4(6H,7H)-dione] here?
A: 1.6 ± 0.7 µM

Q: What about the IC50 [1, 5] of the same compound?
A: 1.2 ± 1.3 µM

Q: Which results are given for `O=C1N[C@H](Cc2ccccc2)C(=O)N2Cc3[nH]c4ccccc4c3C[C@@H]12` [compound 23, (3R,12aS)-3-Benzyl-2,3,12,12a-tetrahydropyrazino[1′,2′:1,6]pyrido[3,4-b]indole-1,4(6H,7H)-dione]?
A: IC50 [1, 3]: 0.4 ± 0.1 µM; IC50 [1, 4]: 0.4 ± 0.1 µM; IC50 [1, 5]: 0.3 µM; activity as agonist or antagonist on TRPV1 (hTRPV1): no activity as agonists or antagonists; activity as agonist or antagonist on TRPA1 (hTRPA1): no activity as agonists or antagonists; activity as agonist or antagonist on Nav1.7 (hNav1.7; veratridine as reference agonist): no activity as agonists or antagonists

Q: With `O=C1[C@@H]2Cc3c([nH]c4ccccc34)CN2C(=O)N1Cc1ccc(F)cc1` [compound 28, (S)-2-(4-Fluorobenzyl)-5,6,11,11a-tetrahydro-1H-imidazo[1′,5′:1,6]pyrido[3,4-b]indole-1,3(2H)-dione] as the compound, how does the IC50 [1, 3] read?
A: 17.8 ± 1.2 µM
